Source: patent US7714014B2, “Targeting GLI proteins in human cancer by small molecules” (The Regents of the University of California, priority 2005, dated 2010)

Columns and labels:
[1] = test system: human breast cancer cell line MCF-7; experiment: Cell survival assay (crystal violet); type: cell-based; conditions: for cell killing: MCF-7, 50 μM
Procedure: (§1) Typically, the small molecule compounds of the present invention were dissolved in DMSO at a concentration of 30 mM. The small molecule compounds were then tested under cell culture conditions at different concentrations ranging from 0, 10, 30, 50, to 100 uM. To determine cell survival after treatment, the cells were incubated with the small molecule compounds in 6-well plates for about 3 days. After removal of the cell culture medium, 1-ml of 0.5% crystal violet solution (prepared in 20% ethanol and 20% methanol) was added to stain the cells for 5 min. Then the crystal violet solution was rinsed clean with tap water. Cell survival was estimated based on the density of crystal stained plates.
The cell-based cytotoxicity assay described herein was used to determine the effect of small molecule compounds FN1-5 and FN1-8 in the human breast cancer cell line MCF-7. Viability of MCF-7 cells was analyzed after treatment with 30 and 50 μM FN1-5 and after treatment with 10, 30, and 50 μM FN1-8.

[2] = test system: BxPC3 (pancreatic cancer); experiment: Apoptosis analysis (Annexin V FITC, flow cytometry); type: cell-based, human; conditions: 3 days
Procedure: (§2) Apoptosis was analyzed by using an Annexin V FITC Apoptosis Detection Kit (Biosource, Camarillo, Calif.), according to the manufacturer's protocol. After treatment with different small molecule compounds at various concentrations for about 3 days, cells were harvested by trypsinization, stained and immediately analyzed by flow cytometry (FACScan; Decton Dickinson, Franklin Lake, N.J.). Early apoptotic cells with exposed phosphatidylserine but intact cell membranes will bind to Annexin V-FITC, but not propidium iodide (PI). Cells in necrotic or late apoptotic stages will be labeled with both Annexin V-FITC and PI. “% apoptotic cells” or “% apoptosis” refers to the combined early and late apoptotic cells.
(§3) Flow cytometry was also used to examine apoptosis induced by molecule compounds FN1-5 and FN1-8 in the human pancreatic cancer cell lines L3.6sl, Panc4.21, BxPC3, and CFPAC-1 cells. […] For example, app.

[3] = test system: Panc4.21 (pancreatic cancer); experiment: as above; type: cell-based, human; conditions: 3 days
Procedure: as §2, §3

[4] = test system: L3.6s1 (pancreatic cancer); experiment: as above; type: cell-based, human; conditions: 3 days
Procedure: as §2, §3

[5] = test system: CFPAC-1 (pancreatic cancer); experiment: as above; type: cell-based, human; conditions: 3 days
Procedure: as §2, §3

[6] = test system: Normal renal cells; experiment: as above; type: cell-based, human
Procedure: as §2
In addition, apoptosis induction after the treatment of different doses of FN1-5 (30 and 50 μM) or FN1-8 (10, 30, and 50 μM) in normal human renal cells was examined by flow cytometry.

[7] = test system: NSCLC cell lines H1299 and A549, colon cancer cell lines SW480 and HCT116; experiment: Cell survival assay (crystal violet), initial screening; type: cell-based, human; conditions: 100 μM, all cancer cell lines tested
Procedure: as §1
Initial screening of small molecule compounds of the present invention was performed using the cell-based assays described herein. […] Two NSCLC cell lines, H1299 and A549, and two colon cancer cell lines, SW480 and HCT116, were incubated with small molecule compounds FN1-1, FN1-2, FN1-3; FN1-5 and FN2-1 at a concentration of 100 μM. DMSO was used as a control. […] This assay identified the small molecule compound FN1-5 inhibiting GLI transcription activation domain (TAF-binding domain, TAFbd), as an active hit compound.

[8] = test system: human hepatocellular carcinoma cell lines HEPG2 and SK-Hep-1; experiment: Cell survival assay (crystal violet); type: cell-based; conditions: for cell killing: 50 μM
Procedure: as §1
The cell-based cytotoxicity assay described herein was used to determine the effect of small molecule compounds FN1-5 and FN1-8 in the human hepatocellular carcinoma cell lines HEPG2 and SK-Hep-1. Viability of these cells was analyzed after treatment with 10, 30 and 50 μM FN1-5 or FN1-8.

[9] = test system: colon cancer cell lines LoVo and CaCO2; experiment: Cell survival assay (crystal violet); type: cell-based, human; conditions: for cell killing: data not shown
Procedure: as §1
Both, small molecule compounds FN1-5 and FN1-8 induced apoptosis in CaCO2 (Tables 2 and 3).

[10] = test system: primary cultured human mesothelioma cells; experiment: Cell survival assay (crystal violet); type: cell-based; conditions: for cell killing effect: 50 and 100 μM, 3 days
Procedure: Fresh cancer tissue and adjacent normal tissue from patients undergoing curative primary resection of their tumors were collected at the time of surgery (IRB approval H8714-15319-040), and immediately snap-frozen in liquid nitrogen. These tissue samples were kept at −170° C. in a liquid nitrogen freezer until further use. Primary tissue cultures were prepared as follows: Fresh cancer tissue was obtained with consent from patients undergoing resection, cut into small pieces (1-2 mm in diameter), and then digested with Collagenase A (Roche Applied Science, Indianapolis, Ind.) at room temperature for 2 hours according to manufacture's protocol. Single cells from the digestion were spun down and the cell pellets were washed twice using RPMI 1640 supplemented with 10% fetal bovine serum, penicillin (100 IU/ml) and streptomycin (100 μg/ml). Then, the cells were resuspended in the same medium and cultured in 6-well plates at 37° C. in a humid incubator with 5% CO2 until they were ready for further treatments.
as §1
Next, the effect of different small molecule compounds on primary cultured human mesothelioma cells freshly made from tissue samples was examined. The primary cultures were plated in 6-well plates as described herein and incubated with 50 and 100 μM of each compound (FN1-5, FN1-7, FN1-8, and FN3-5; stocks were dissolved in DMSO at 30 mM) for 3 days. […] (FIG. 8).

[11] = test system: Dvl-3 and cytosolic beta-catenin in H460 tumor; experiment: Western blot of cytosolic proteins from xenograft tumors; type: in vivo, mouse
Procedure: (§4) To examine whether the lead compound FN1-8 suppressed tumor growth through inhibition of the Wnt signaling pathway in vivo, Western blot analysis of cytosolic proteins isolated from the H460 and HT29 xenograft tumors was performed. GAPDH served as a control. This Western Blot analysis was performed using a “pooled” tumor from two randomly selected mice of each group with reasonable size tumors.

[12] = test system: Dvl-3 and cytosolic β-catenin in HT29 tumor; experiment: as above; type: in vivo, mouse; conditions: HT29 xenograft tumor (negative control)
Procedure: as §4

Row | SMILES | cell killing [1] | % of apoptotic cells ([2]; BxPC3, 30 μM) [%] | % of apoptotic cells ([2]; BxPC3, 50 μM) [%] | % of apoptotic cells ([3]; Panc4.21, 30 μM) [%] | % of apoptotic cells ([3]; Panc4.21, 50 μM) [%] | % of apoptotic cells ([4]; L3.6s1, 30 μM) [%] | % of apoptotic cells ([4]; L3.6s1, 50 μM) [%] | % of apoptotic cells ([5]; CFPAC-1, 30 μM) [%] | % of apoptotic cells ([5]; CFPAC-1, 50 μM) [%] | % of apoptotic cells ([6]; 30 μM) [%] | % of apoptotic cells ([6]; 50 μM) [%] | cell killing [8] | cell killing [9] | cell killing effect [10] | other results
1 | O=C(NCCCCCO)C1C(c2ccccc2)=NN(c2ccccc2)C1c1ccccc1 (centres unmarked) [FN1-5, N-(5-Hydroxypentyl)-1,3,5-triphenyl-4,5-dihydro-pyrazole-4-carboxyamide] | dramatic cell killing | 11.2 | 30.0 | 9.3 | 10.3 | 27.5 | 44.8 | 17.4 | 30.6 | 5.6 | 6.6 | dramatic cell killing | dramatic cell killing | Dramatic cell killing effect | apoptosis induction ([3]; Panc4.21, 30 and 50 μM): did not seem to induce apoptosis; cell killing effect [7]: dramatic cell killing effect
2 | O=C(NCCc1ccc(O)cc1)C1C(c2ccccc2)=NN(c2ccccc2)C1c1ccccc1 (centres unmarked) [FN1-8, N-(2-(4-Hydroxyphenyl)ethyl)-1,3,5-triphenyl-4,5-dihydro-pyrazole-4-carboxyamide] | dramatic cell killing | 20.4 | 77.4 | 10.6 | 23.4 | 25.1 | 45.7 | 15.0 | 19.8 | 4.1 | 6.2 | dramatic cell killing | dramatic cell killing | Dramatic cell killing effect | cell killing potency compared with FN1-5 ([1]; MCF-7): more potent; % of apoptotic cells ([2]; BxPC3, 10 μM): 11.4%; % of apoptotic cells ([3]; Panc4.21, 10 μM): 11.2%; % of apoptotic cells ([4]; L3.6s1, 10 μM): 12.8%; % of apoptotic cells ([5]; CFPAC-1, 10 μM): 15.4%; % of apoptotic cells ([6]; 10 μM): 3.1%; Dvl-3 and cytosolic beta-catenin expression in tumor [11]: down-regulated; Dvl-3 and cytosolic β-catenin levels in tumor [12]: no noticeable changes; cell killing potency compared with FN1-5 [8]: more potent; cell killing potency compared with FN1-5 [9]: more potent than FN1-5; cell killing potency compared with FN1-5 ([10]; same dose): more potent than FN1-5
